Data: the NIST ThermoML archive (doi:10.1021/je034062r)
Numbers after ± are expanded uncertainties.

Test: xn = mol fraction of the nth substance listed
Conditions: for mass density: Liquid; for surface tension liquid-gas: Pendant drop shape

C1CCCCC1 [cyclohexane] + CCCCCCC
Conditions	mass density [kg/m3]	surface tension liquid-gas [mN/m]
283.15 K, x1 = 0.1022	699.2 ± 1	–
283.15 K, x1 = 0.2022	706.5 ± 1	–
283.15 K, x1 = 0.3078	714.6 ± 1	–
283.15 K, x1 = 0.401	722.3 ± 1.1	–
283.15 K, x1 = 0.4984	730.8 ± 0.8	–
283.15 K, x1 = 0.7003	750.8 ± 1.5	–
283.15 K, x1 = 0.8054	761.5 ± 1.3	–
283.15 K, x1 = 0.898	774.2 ± 1.5	–
283.15 K, x1 = 1	787.9 ± 0.5	–
287.81 K, x1 = 0.1022	–	20.91 ± 0.26
287.81 K, x1 = 0.2022	–	21.31 ± 0.26
287.81 K, x1 = 0.3078	–	21.65 ± 0.26
287.81 K, x1 = 0.401	–	21.88 ± 0.26
287.81 K, x1 = 0.4984	–	22.27 ± 0.27
287.81 K, x1 = 0.6002	–	22.62 ± 0.27
287.81 K, x1 = 0.7003	–	23.08 ± 0.27
287.81 K, x1 = 0.8054	–	23.84 ± 0.28
287.81 K, x1 = 0.898	–	24.39 ± 0.29
287.81 K, x1 = 1	–	25.34 ± 0.28
288.15 K, x1 = 0.1022	695 ± 1	–
288.15 K, x1 = 0.2022	702.2 ± 1	–
288.15 K, x1 = 0.3078	710.4 ± 1	–
288.15 K, x1 = 0.401	717.9 ± 1.1	–
288.15 K, x1 = 0.4984	726.5 ± 0.9	–
288.15 K, x1 = 0.7003	746.4 ± 1.4	–
288.15 K, x1 = 0.8054	758 ± 1.3	–
288.15 K, x1 = 0.898	769.7 ± 1.4	–
288.15 K, x1 = 1	783.2 ± 0.5	–
293.15 K, x1 = 0.1022	690.8 ± 1	–
293.15 K, x1 = 0.2022	698 ± 1	–
293.15 K, x1 = 0.3078	706.1 ± 1	–
293.15 K, x1 = 0.401	713.6 ± 1.1	–
293.15 K, x1 = 0.4984	722.2 ± 1	–
293.15 K, x1 = 0.7003	742 ± 1.3	–
293.15 K, x1 = 0.8054	753.5 ± 1.3	–
293.15 K, x1 = 0.898	765.1 ± 1.4	–
293.15 K, x1 = 1	778.6 ± 0.5	–
297.82 K, x1 = 0.1022	–	19.95 ± 0.25
297.82 K, x1 = 0.2022	–	20.25 ± 0.25
297.82 K, x1 = 0.3078	–	20.52 ± 0.26
297.82 K, x1 = 0.401	–	20.9 ± 0.26
297.82 K, x1 = 0.4984	–	21.21 ± 0.26
297.82 K, x1 = 0.6002	–	21.57 ± 0.26
297.82 K, x1 = 0.7003	–	22.14 ± 0.27
297.82 K, x1 = 0.8054	–	22.72 ± 0.27
297.82 K, x1 = 0.898	–	23.32 ± 0.28
297.82 K, x1 = 1	–	24.2 ± 0.27
298.15 K, x1 = 0.1022	686.5 ± 1	–
298.15 K, x1 = 0.2022	693.6 ± 1	–
298.15 K, x1 = 0.3078	701.7 ± 1	–
298.15 K, x1 = 0.401	709.2 ± 1.1	–
298.15 K, x1 = 0.4984	717.8 ± 1	–
298.15 K, x1 = 0.6002	725.6 ± 10	–
298.15 K, x1 = 0.7003	737.5 ± 1.3	–
298.15 K, x1 = 0.8054	749 ± 1.3	–
298.15 K, x1 = 0.898	760.5 ± 1.4	–
298.15 K, x1 = 1	773.9 ± 0.5	–
303.15 K, x1 = 0.1022	682.2 ± 1	–
303.15 K, x1 = 0.2022	689.3 ± 1	–
303.15 K, x1 = 0.3078	697.4 ± 1	–
303.15 K, x1 = 0.401	704.8 ± 1.1	–
303.15 K, x1 = 0.4984	713.3 ± 1.1	–
303.15 K, x1 = 0.6002	722 ± 10	–
303.15 K, x1 = 0.7003	733 ± 1.2	–
303.15 K, x1 = 0.8054	744.4 ± 1.3	–
303.15 K, x1 = 0.898	755.8 ± 1.4	–
303.15 K, x1 = 1	769.2 ± 0.5	–
307.86 K, x1 = 0.1022	–	18.91 ± 0.25
307.86 K, x1 = 0.2022	–	19.25 ± 0.25
307.86 K, x1 = 0.3078	–	19.58 ± 0.25
307.86 K, x1 = 0.401	–	19.87 ± 0.25
307.86 K, x1 = 0.4984	–	20.19 ± 0.25
307.86 K, x1 = 0.6002	–	20.53 ± 0.25
307.86 K, x1 = 0.7003	–	21.06 ± 0.26
307.86 K, x1 = 0.8054	–	21.64 ± 0.26
307.86 K, x1 = 0.898	–	22.18 ± 0.27
307.86 K, x1 = 1	–	23.02 ± 0.26
308.15 K, x1 = 0.1022	677.8 ± 1	–
308.15 K, x1 = 0.2022	685 ± 1	–
308.15 K, x1 = 0.3078	693 ± 1	–
308.15 K, x1 = 0.401	700.4 ± 1.1	–
308.15 K, x1 = 0.4984	708.9 ± 1.1	–
308.15 K, x1 = 0.6002	718.1 ± 10	–
308.15 K, x1 = 0.7003	728.4 ± 1.2	–
308.15 K, x1 = 0.8054	739.8 ± 1.3	–
308.15 K, x1 = 0.898	751.2 ± 1.4	–
308.15 K, x1 = 1	764.4 ± 0.5	–
313.15 K, x1 = 0.1022	673.5 ± 1	–
313.15 K, x1 = 0.2022	680.6 ± 1	–
313.15 K, x1 = 0.3078	688.6 ± 1	–
313.15 K, x1 = 0.401	696 ± 1.1	–
313.15 K, x1 = 0.4984	704.4 ± 1.1	–
313.15 K, x1 = 0.6002	713.8 ± 10	–
313.15 K, x1 = 0.7003	723.9 ± 1.2	–
313.15 K, x1 = 0.8054	735.2 ± 1.3	–
313.15 K, x1 = 0.898	746.5 ± 1.4	–
313.15 K, x1 = 1	759.6 ± 0.5	–
317.86 K, x1 = 0.1022	–	17.91 ± 0.24
317.86 K, x1 = 0.2022	–	18.36 ± 0.24
317.86 K, x1 = 0.3078	–	18.53 ± 0.24
317.86 K, x1 = 0.401	–	18.82 ± 0.24
317.86 K, x1 = 0.4984	–	19.16 ± 0.24
317.86 K, x1 = 0.6002	–	19.55 ± 0.25
317.86 K, x1 = 0.7003	–	20.01 ± 0.25
317.86 K, x1 = 0.8054	–	20.56 ± 0.25
317.86 K, x1 = 0.898	–	21.07 ± 0.26
317.86 K, x1 = 1	–	21.84 ± 0.25
318.15 K, x1 = 0.1022	669 ± 1	–
318.15 K, x1 = 0.2022	676.1 ± 1	–
318.15 K, x1 = 0.3078	684.1 ± 1	–
318.15 K, x1 = 0.401	691.5 ± 1.1	–
318.15 K, x1 = 0.4984	699.9 ± 1.1	–
318.15 K, x1 = 0.6002	709.3 ± 10	–
318.15 K, x1 = 0.7003	719.3 ± 1.2	–
318.15 K, x1 = 0.8054	730.6 ± 1.3	–
318.15 K, x1 = 0.898	741.8 ± 1.4	–
318.15 K, x1 = 1	754.8 ± 0.5	–
323.15 K, x1 = 0.1022	664.6 ± 1	–
323.15 K, x1 = 0.2022	671.7 ± 1	–
323.15 K, x1 = 0.3078	679.6 ± 1	–
323.15 K, x1 = 0.401	686.9 ± 1.1	–
323.15 K, x1 = 0.4984	695.4 ± 1.1	–
323.15 K, x1 = 0.6002	704.7 ± 10	–
323.15 K, x1 = 0.7003	714.7 ± 1.2	–
323.15 K, x1 = 0.8054	725.9 ± 1.3	–
323.15 K, x1 = 0.898	737.1 ± 1.4	–
323.15 K, x1 = 1	750 ± 0.5	–
327.88 K, x1 = 0.1022	–	16.83 ± 0.23
327.88 K, x1 = 0.2022	–	17.05 ± 0.23
327.88 K, x1 = 0.3078	–	17.41 ± 0.23
327.88 K, x1 = 0.401	–	17.52 ± 0.23
327.88 K, x1 = 0.4984	–	17.99 ± 0.24
327.88 K, x1 = 0.6002	–	18.44 ± 0.24
327.88 K, x1 = 0.7003	–	18.95 ± 0.24
327.88 K, x1 = 0.8054	–	19.48 ± 0.24
327.88 K, x1 = 0.898	–	19.98 ± 0.25
327.88 K, x1 = 1	–	20.71 ± 0.24
328.15 K, x1 = 0.1022	660.1 ± 1	–
328.15 K, x1 = 0.2022	667.2 ± 1	–
328.15 K, x1 = 0.3078	675.1 ± 1	–
328.15 K, x1 = 0.401	682.4 ± 1.1	–
328.15 K, x1 = 0.4984	691 ± 1.1	–
328.15 K, x1 = 0.6002	700.1 ± 10	–
328.15 K, x1 = 0.7003	710 ± 1.2	–
328.15 K, x1 = 0.8054	721.2 ± 1.3	–
328.15 K, x1 = 0.898	732.3 ± 1.4	–
328.15 K, x1 = 1	745.2 ± 0.6	–
333.15 K, x1 = 0.1022	655.5 ± 1	–
333.15 K, x1 = 0.3078	670.5 ± 1	–
333.15 K, x1 = 0.401	677.8 ± 1.1	–
333.15 K, x1 = 0.4984	686.2 ± 1.1	–
333.15 K, x1 = 0.6002	695.5 ± 10	–
333.15 K, x1 = 0.7003	705.3 ± 1.2	–
333.15 K, x1 = 0.8054	716.5 ± 1.3	–
333.15 K, x1 = 0.898	727.5 ± 1.4	–
333.15 K, x1 = 1	740.3 ± 0.6	–
